Patent publication US11331369B2, “Endoparasitic depsipeptides” (Zoetis Services LLC, priority 2017, dated 2022)

System: microfilariae of Dirofilaria immitis
Experiment: Dirofilaria immitis, Microfilaria (DiMF) In vitro Assay
Assay type: cell-based
Details: 72 h, read-out: DiMF Minimum Effective Dose (MED), approximately 72 hours incubation, microfilariae assessed for survival or paralysis

CC(C)C[C@H]1C(=O)O[C@H](Cc2ccc(Cn3ccc(-c4ccncc4)n3)cc2)C(=O)N(C)[C@@H](CC(C)C)C(=O)O[C@H](C)C(=O)N(C)[C@@H](CC(C)C)C(=O)O[C@H](Cc2ccc(Cn3ccc(-c4ccncc4)n3)cc2)C(=O)N(C)[C@@H](CC(C)C)C(=O)O[C@H](C)C(=O)N1C [Example 1b-138, (3S,6R,9S,12R,15S,18R,21S,24R)-3,9,15,21-tetraisobutyl-4,6,10,16,18,22-hexamethyl-12,24-bis(4-((3-(pyridin-4-yl)-1H-pyrazol-1-yl)methyl)benzyl)-1,7,13,19-tetraoxa-4,10,16,22-tetraazacyclotetracosan-2,5,8,11,14,17,20,23-octaone]
minimal effective concentration: 0.01 to 0.1 µM

CC(C)C[C@H]1C(=O)O[C@H](Cc2ccc(Cn3ccc(-c4cccnc4)n3)cc2)C(=O)N(C)[C@@H](CC(C)C)C(=O)O[C@H](C)C(=O)N(C)[C@@H](CC(C)C)C(=O)O[C@H](Cc2ccc(Cn3ccc(-c4cccnc4)n3)cc2)C(=O)N(C)[C@@H](CC(C)C)C(=O)O[C@H](C)C(=O)N1C [Example 1b-139, (3S,6R,9S,12R,15S,18R,21S,24R)-3,9,15,21-tetraisobutyl-4,6,10,16,18,22-hexamethyl-12,24-bis(4-((3-(pyridin-3-yl)-1H-pyrazol-1-yl)methyl)benzyl)-1,7,13,19-tetraoxa-4,10,16,22-tetraazacyclotetracosan-2,5,8,11,14,17,20,23-octaone]
minimal effective concentration: 0.01 to 0.1 µM

CC(C)C[C@H]1C(=O)O[C@H](Cc2ccc(Cn3cc(OC(F)F)cn3)cc2)C(=O)N(C)[C@@H](CC(C)C)C(=O)O[C@H](C)C(=O)N(C)[C@@H](CC(C)C)C(=O)O[C@H](Cc2ccc(Cn3cc(OC(F)F)cn3)cc2)C(=O)N(C)[C@@H](CC(C)C)C(=O)O[C@H](C)C(=O)N1C [Example 1b-140, (3S,6R,9S,12R,15S,18R,21S,24R)-6,18-bis(4-((4-(difluoromethoxy)-1H-pyrazol-1-yl)methyl)benzyl)-3,9,15,21-tetraisobutyl-4,10,12,16,22,24-hexamethyl-1,7,13,19-tetraoxa-4,10,16,22-tetraazacyclotetracosan-2,5,8,11,14,17,20,23-octaone]
minimal effective concentration: 0.01 to 0.1 µM

CC(C)C[C@H]1C(=O)O[C@H](Cc2ccc(Cn3cc(OC4CCC4)cn3)cc2)C(=O)N(C)[C@@H](CC(C)C)C(=O)O[C@H](C)C(=O)N(C)[C@@H](CC(C)C)C(=O)O[C@H](Cc2ccc(Cn3cc(OC4CCC4)cn3)cc2)C(=O)N(C)[C@@H](CC(C)C)C(=O)O[C@H](C)C(=O)N1C [Example 1b-141, (3S,6R,9S,12R,15S,18R,21S,24R)-6,18-bis(4-((4-cyclobutoxy-1H-pyrazol-1-yl)methyl)benzyl)-3,9,15,21-tetraisobutyl-4,10,12,16,22,24-hexamethyl-1,7,13,19-tetraoxa-4,10,16,22-tetraazacyclotetracosan-2,5,8,11,14,17,20,23-octaone]
minimal effective concentration: 0.01 to 0.1 µM

CC(C)C[C@H]1C(=O)O[C@H](Cc2ccc(Cn3cc(OC4COC4)cn3)cc2)C(=O)N(C)[C@@H](CC(C)C)C(=O)O[C@H](C)C(=O)N(C)[C@@H](CC(C)C)C(=O)O[C@H](Cc2ccc(Cn3cc(OC4COC4)cn3)cc2)C(=O)N(C)[C@@H](CC(C)C)C(=O)O[C@H](C)C(=O)N1C [Example 1b-142, (3S,6R,9S,12R,15S,18R,21S,24R)-3,9,15,21-tetraisobutyl-4,6,10,16,18,22-hexamethyl-12,24-bis(4-((4-(oxetan-3-yloxy)-1H-pyrazol-1-yl)methyl)benzyl)-1,7,13,19-tetraoxa-4,10,16,22-tetraazacyclotetracosan-2,5,8,11,14,17,20,23-octaone]
minimal effective concentration: 0.001 to 0.01 µM

CC(C)C[C@H]1C(=O)O[C@H](Cc2ccc(Cn3nccc3N)cc2)C(=O)N(C)[C@@H](CC(C)C)C(=O)O[C@H](C)C(=O)N(C)[C@@H](CC(C)C)C(=O)O[C@H](Cc2ccc(Cn3nccc3N)cc2)C(=O)N(C)[C@@H](CC(C)C)C(=O)O[C@H](C)C(=O)N1C [Example 1b-144, (3S,6R,9S,12R,15S,18R,21S,24R)-6,18-bis(4-((5-amino-1H-pyrazol-1-yl)methyl)benzyl)-3,9,15,21-tetraisobutyl-4,10,12,16,22,24-hexamethyl-1,7,13,19-tetraoxa-4,10,16,22-tetraazacyclotetracosan-2,5,8,11,14,17,20,23-octaone]
minimal effective concentration: 0.01 to 0.1 µM

CC(C)C[C@H]1C(=O)O[C@H](Cc2ccc(Cn3ccc(OC(F)F)n3)cc2)C(=O)N(C)[C@@H](CC(C)C)C(=O)O[C@H](C)C(=O)N(C)[C@@H](CC(C)C)C(=O)O[C@H](Cc2ccc(Cn3ccc(OC(F)F)n3)cc2)C(=O)N(C)[C@@H](CC(C)C)C(=O)O[C@H](C)C(=O)N1C [Example 1b-156, (3S,6R,9S,12R,15S,18R,21S,24R)-6,18-bis(4-((3-(difluoromethoxy)-1H-pyrazol-1-yl)methyl)benzyl)-3,9,15,21-tetraisobutyl-4,10,12,16,22,24-hexamethyl-1,7,13,19-tetraoxa-4,10,16,22-tetraazacyclotetracosan-2,5,8,11,14,17,20,23-octaone]
minimal effective concentration: 0.01 to 0.1 µM

CCOc1cc(C)n(Cc2ccc(C[C@H]3OC(=O)[C@H](CC(C)C)N(C)C(=O)[C@@H](C)OC(=O)[C@H](CC(C)C)N(C)C(=O)[C@@H](Cc4ccc(Cn5nc(OCC)cc5C)cc4)OC(=O)[C@H](CC(C)C)N(C)C(=O)[C@@H](C)OC(=O)[C@H](CC(C)C)N(C)C3=O)cc2)n1 [Example 1b-159, (3S,6R,9S,12R,15S,18R,21S,24R)-6,18-bis(4-((3-ethoxy-5-methyl-1H-pyrazol-1-yl)methyl)benzyl)-3,9,15,21-tetraisobutyl-4,10,12,16,22,24-hexamethyl-1,7,13,19-tetraoxa-4,10,16,22-tetraazacyclotetracosan-2,5,8,11,14,17,20,23-octaone]
minimal effective concentration: 0.01 to 0.1 µM

CC(C)C[C@H]1C(=O)O[C@H](Cc2ccc(Cn3cc(CO)c(C(F)(F)F)n3)cc2)C(=O)N(C)[C@@H](CC(C)C)C(=O)O[C@H](C)C(=O)N(C)[C@@H](CC(C)C)C(=O)O[C@H](Cc2ccc(Cn3cc(CO)c(C(F)(F)F)n3)cc2)C(=O)N(C)[C@@H](CC(C)C)C(=O)O[C@H](C)C(=O)N1C [Example 1b-162, (3S,6R,9S,12R,15S,18R,21S,24R)-6,18-bis(4-((4-(hydroxymethyl)-3-(trifluoromethyl)-1H-pyrazol-1-yl)methyl)benzyl)-3,9,15,21-tetraisobutyl-4,10,12,16,22,24-hexamethyl-1,7,13,19-tetraoxa-4,10,16,22-tetraazacyclotetracosan-2,5,8,11,14,17,20,23-octaone]
minimal effective concentration: 0.01 to 0.1 µM

CCOc1cc(C)nn1Cc1ccc(C[C@H]2OC(=O)[C@H](CC(C)C)N(C)C(=O)[C@@H](C)OC(=O)[C@H](CC(C)C)N(C)C(=O)[C@@H](Cc3ccc(Cn4nc(C)cc4OCC)cc3)OC(=O)[C@H](CC(C)C)N(C)C(=O)[C@@H](C)OC(=O)[C@H](CC(C)C)N(C)C2=O)cc1 [Example 1b-163, (3S,6R,9S,12R,15S,18R,21S,24R)-6,18-bis(4-((5-ethoxy-3-methyl-1H-pyrazol-1-yl)methyl)benzyl)-3,9,15,21-tetraisobutyl-4,10,12,16,22,24-hexamethyl-1,7,13,19-tetraoxa-4,10,16,22-tetraazacyclotetracosan-2,5,8,11,14,17,20,23-octaone]
minimal effective concentration: 0.01 to 0.1 µM
